Source: patent US20250059187A1, “COVALENTLY BINDING INHIBITORS OF G12S, G12D AND/OR G12E MUTANTS OF K-RAS GTPASE” (The Regents of the University of California, priority 2021, published 2025)
“Also recorded” adds a separate entry of the source. Like-named read-outs stand apart in the source and are kept apart here. One block for each compound: values may come before it.

Assays:
K-Ras G12D [1] = biological target: T1, K-Ras G12D (Homo sapiens, UniProt P01116, G12D); assay: Covalent modification of recombinant K-Ras(G12D) by whole-protein mass spectrometry; type: binding
T1 construct: human K-Ras (G12D, aa 1-169); 6xHis tag + TEV cleavage site (N, cleaved yes); made in house; host or cells: E. coli BL21(DE3)
Experimental: (§1) Test compounds were prepared as 100× stock solutions in DMSO. K-Ras proteins were diluted with SEC Buffer (20 mM HEPES 7.5, 150 mM NaCl, 1 mM MgCl2) to 400 nM or 1 μM. In a typical reaction, 0.5 μL 100× compound stock was mixed with 50 μL diluted K-Ras protein, and the resulting mixture was incubated for the desired amount of time. The extent of modification was assessed by electrospray mass spectrometry using a Waters Xevo G2-XS system equipped with an Acquity UPLC BEH C4 1.7 μm column. The mobile phase was a linear gradient of 5-95% acetonitrile/water+0.05% formic acid. For kinetic measurements, a 2× compound solution was first prepared in SEC Buffer, which was then mixed with 400 nM K-Ras(G12D) protein at 1:1 (v/v) ratio. Injection time stamps were used to calculate elapsed time.

BaF3/K-Ras(G12D) cells = assay: Growth inhibition of BaF3/K-Ras(G12D) cells; type: cell-based, murine; conditions: Mus musculus
Experimental: (§2) Cells were seeded into 96-well white flat bottom plates (1,000 cells/well) (Corning) and incubated overnight. Cells were treated with the indicated compounds in a nine-point threefold dilution series (100 μL final volume) and incubated for 72 h. Cell viability was assessed using a commercial CellTiter-Glo (CTG) luminescence-based assay (Promega). Briefly, the 96-well plates were equilibrated to room temperature before the addition of diluted CTG reagent […] (1:4 CTG reagent:PBS). Plates were placed on an orbital shaker for 30 min before recording luminescence using a Spark 20M (Tecan) plate reader.

[2] = Stability of substituted β-lactones in PBS 7.4 at 23° C.; type: physicochemical; conditions: after 24 h, pH 7.4
wild type K-Ras [3] = biological target: T2, wild type K-Ras (Homo sapiens, UniProt P01116); assay: Covalent modification of recombinant wild-type K-Ras by whole-protein mass spectrometry; type: binding; conditions: 23° C.
T2 construct: human K-Ras (wildtype, aa 1-169); 6xHis tag + TEV cleavage site (N, cleaved yes); made in house; host or cells: E. coli BL21(DE3)
Experimental: as §1, with “K-Ras(G12S)” for “K-Ras(G12D)”
as §1

K-Ras(G12S)·GDP = biological target: T3, K-Ras(G12S)·GDP (Homo sapiens, UniProt P01116, G12S); assay: Differential scanning fluorimetry of K-Ras(G12S)·GDP and its adduct; type: binding
T3 construct: human K-Ras (G12S, aa 1-169); 6xHis tag + TEV cleavage site (N, cleaved yes); made in house; host or cells: E. coli BL21(DE3)
Experimental: The protein of interest was diluted with SEC Buffer [20 mM HEPES 7.5, 150 mM NaCl, 1 mM MgCl2] to 8 μM. This solution was dispensed into wells of a white 96-well PCR plate in triplicate (25 μL/well). Fluorescence was measured at 0.5-° C. temperature intervals every 30 s from 25° C. to 95° C. on a Bio-Rad CFX96 qPCR system using the FRET setting. Each data set was normalized to the highest fluorescence and the normalized fluorescence reading was plotted against temperature in GraphPad Prism 8.0. Tm values were determined as the temperature(s) corresponding to the maximum(ma) of the first derivative of the curve.

wild type K-Ras [4] = biological target: T2, wild type K-Ras; assay: Covalent modification of test protein after incubation with compound; type: binding; conditions: 24-h incubation with 100 μM compound at 23° C. at pH 7.5
K-Ras G12D [5] = biological target: T1, K-Ras G12D; assay: as above; type: binding; conditions: 24-h incubation with 100 μM compound at 23° C. at pH 7.5
K-Ras G12E = biological target: T4, K-Ras G12E (Homo sapiens, UniProt P01116, G12E); assay: as above; type: binding; conditions: 24-h incubation with 100 μM compound at 23° C. at pH 7.5
T4 construct: human K-Ras (G12E, aa 1-169); 6xHis tag + TEV cleavage site (N, cleaved yes); made in house; host or cells: E. coli BL21(DE3)

K-Ras(G12S) [6] = biological target: T5, K-Ras(G12S) (Homo sapiens, UniProt P01116, G12S); assay: Covalent modification of recombinant K-Ras(G12S) by whole-protein mass spectrometry; type: binding; parameters: human K-Ras (G12S, aa 1-169); 6xHis tag + TEV cleavage site (N, cleaved yes); made in house; host or cells: E. coli BL21(DE3); conditions: for extent of modification of K-Ras(G12S)·GDP: 10 μM compound, 4 μM protein
Experimental: as §1, with “The mobile phase was a linear gradient of 5-95% acetonitrile/water+0.05% formic acid.” left out, “K-Ras(G12S)” for “K-Ras(G12D)”
as §1, with “The mobile phase was a linear gradient of 5-95% acetonitrile/water+0.05% formic acid.” left out

K-Ras(G12S) [7] = biological target: T5, K-Ras(G12S); assay: Sos- or EDTA-mediated nucleotide exchange assay (BODIPY-GDP); type: biochemical; parameters: human K-Ras (G12S, aa 1-169); 6xHis tag + TEV cleavage site (N, cleaved yes); made in house; host or cells: E. coli BL21(DE3) for K-Ras; conditions: K-Ras(G12S) adduct
Experimental: This assay was performed as previously reported (2-5) with slight modifications. BODIPY-GDP-loaded K-Ras proteins were prepared freshly as follows. To a 10 μM solution of K-Ras(wildtype)·GDP, K-Ras(G12S)·GDP, or K-Ras(G12S)·GDP·1′ in SEC Buffer (1 mL) was added sequentially BODIPY-GDP (5 mM, 40 μL, Thermo Fisher, final concentration 200 μM) and Na-EDTA pH 8.0 (0.5 M, 5 μL, final concentration 2.5 mM). The mixture was incubated at 23° C. for 1 h, and a solution of MgCl2 (1.0 M, 20 μL, […]) was added to the reaction mixture. The protein solution was run through a PD-10 column to remove the excess nucleotide following the manufacturer's protocol. Briefly, sample (˜1.0 mL) and excess buffer (1.5 mL) were loaded onto the column (equilibrated with NucEx Buffer), and desalted protein was eluted with NucEx Buffer (3.5 mL). Protein concentration was measured with Bradford assay and adjusted to 1.25 μM with NucEx Buffer. 12 μL of this solution (triplicate for each condition) was added to wells of a black 384-well low-volume assay plate (Corning 4514). […] The plate was immediately placed in a TECAN Spark 20M plate reader, and fluorescence for BODIPY (excitation 488 nm, emission 520 nm) was read every 30 s over 1 h. Fluorescence intensity was normalized to values at time 0 and plotted again time. […]

[8] = tested on: parental Ba/F3 cells (with IL-3); assay: Cell viability assay (CellTiter-Glo), parental Ba/F3 cells; type: cell-based, murine; conditions: 10 μM
Experimental: as §2, with “Cells were treated with the indicated compounds in a nine-point threefold dilution series (100 μL final volume) and incubated for 72 h.” left out

[9] = biological target: T6, interaction between Raf-RBD and K-Ras(G12D) (Homo sapiens, UniProt P01116, G12D); assay: Time-resolved fluorescence energy transfer assay, Raf-RBD and K-Ras(G12D); type: biochemical; conditions: dose-dependent
T6 construct: human K-Ras (G12D, aa 1-169); 6xHis tag + TEV cleavage site (N); made in house; host or cells: E. coli BL21(DE3) for K-Ras

SMILES: CC(C)[C@H]1C(=O)O[C@@H]1C(=O)N1[C@@H]2CC[C@H]1CN(c1nc(OCC34CCCN3CCC4)nc3c(F)c(-c4cccc5cccc(Cl)c45)ncc13)C2 [(2S, 3R)-4]
- reactivity with K-Ras(G12D)·GDP (K-Ras G12D [1]): did not show any detectable reactivity
- IC50 (BaF3/K-Ras(G12D) cells; 95% CI: 3.1-6.3 μM, read-out: IC50, BaF3/K-Ras(G12D) proliferation): 4400 nM

SMILES: CC(C)[C@@H]1C(=O)O[C@H]1C(=O)N1[C@@H]2CC[C@H]1CN(c1nc(OCC34CCCN3CCC4)nc3c(F)c(-c4cccc5cccc(Cl)c45)ncc13)C2 [Compound 4]
- material remaining intact (hydrolysis) [2]: > 90%
- IC50 (BaF3/K-Ras(G12D) cells; read-out: IC50, growth of BaF3/K-Ras(G12D) cells): 71 nM

- % covalent modification of wild type K-Ras (wild type K-Ras [3]; 24-h incubation, 100 μM compound, pH 7.5): 7.0%
- change of melting temperature of K-Ras(G12S)·GDP on adduct formation (K-Ras(G12S)·GDP): +17.2 °C
- melting temperature (Tm) of the K-Ras(G12S)·GDP adduct (K-Ras(G12S)·GDP; unmodified K-Ras(G12S)·GDP 53.7° C.): 70.9 °C
- % covalent modification of wild type K-Ras (wild type K-Ras [4]): 7.0%
- % covalent modification of K-Ras G12D (K-Ras G12D [5]): 7.0%
- % covalent modification of K-Ras G12E (K-Ras G12E): 12.0%
- extent of modification of K-Ras(G12S)·GDP (K-Ras(G12S) [6]; 1 hour, 23° C.): 64%
- extent of modification of K-Ras(G12S)·GDP (K-Ras(G12S) [6]; 12 h): 100%
- % covalent modification of K-Ras G12S (K-Ras(G12S) [6]; 24-h incubation, 100 μM compound, 23° C., pH 7.5): 100%
- Sos-catalyzed nucleotide exchange (K-Ras(G12S) [7]; Sos): blocked Sos-catalyzed exchange
SMILES: CN1CCC[C@H]1COc1nc2c(c(N3CCC4C(=O)OC4C3)n1)CCN(c1cccc3cccc(Cl)c13)C2 (stereo partly shown) [1′]
- covalent adducts with wild-type K-Ras protein (wild type K-Ras [3]; 10 μM compound, 4 μM protein): neither of these compounds formed covalent adducts
- reaction with GppNHp-loaded K-Ras(G12S) (K-Ras(G12S) [6]; GppNHp-loaded protein, identical conditions): no reaction was observed; also recorded: does not react
- EDTA promoted nucleotide exchange (K-Ras(G12S) [7]; EDTA): decreased the rate of EDTA promoted exchange

SMILES: C=C(F)C(=O)N1CCN(c2nc(OC[C@@H]3CCCN3C)nc3c2CCN(c2cccc4cccc(Cl)c24)C3)C[C@@H]1CC#N [adagrasib, reference compound]
- cell death of parental Ba/F3 cells [8]: complete cell death

SMILES: C#Cc1cccc2cccc(-c3ncc4c(N5C[C@H]6CC[C@@H](C5)N6C(=O)C5CC(=O)O5)nc(OCC56CCCN5CCC6)nc4c3F)c12 (mixture of isomers) [(RS)-1]
- interaction between Raf-RBD and K-Ras(G12D) [9]: disrupted Ras-RafRBD binding
- % covalent modification of wild type K-Ras (wild type K-Ras [4]): 0%
- % covalent modification of K-Ras G12D (K-Ras G12D [5]): 100%
- % covalent modification of K-Ras G12E (K-Ras G12E): 6.3%
